Experimental data from patent publication US8192962B2, “Processes for detecting toxic substances” (Daikin Industries, Ltd., priority 2001, dated 2012).

Test system: Metabolism protein genes
Assay: DNA chip mRNA expression in yeast, metabolism protein genes (Table 7)
Format: cell-based, Saccharomyces cerevisiae S288C
Procedure: Yeast (Saccharomyces cerevisiae S288C (α SUC2mal mel gap2 CUP1)) were incubated at 25° C. on YPD medium (yeast extract 1%, polypepton 2%, glucose 2%). One of toxic chemical substances was added to the cells at logarithmic growth phase, and the cells were further incubated for two hours. Cells were cultured without any chemical substance in the same condition, and were used as control. Concentrations of the chemical substances were defined to inhibit the growth of the yeast but not lead to death.
After completion of the incubation, the culture was centrifuged to collect the cells. To the cells, sodium acetate buffer (50 mM sodium acetate, 10 mM EDTA, 1% SDS) was added, and the mixture was shaken at 65° C. for five minutes, followed by returning to room temperature, and obtaining the supernatant, of which the procedures were repeated two times. To the supernatant, ½ amount of a solution of phenol/chloroform was added, and the mixture was centrifuged to give a supernatant, which was added with an equal amount of chloroform, and the mixture was centrifuged to give a supernatant. To the supernatant, an equal amount of isopropanol containing 0.3 M sodium acetate was added, and the mixture was allowed to stand at room temperature for 30 minutes, after which the mixture was centrifuged to give a sediment of the whole RNAs. Seventy % ethanol was added to the sediment, and the mixture was again centrifuged to give a sediment, which was then dried and dissolved in water. mRNA was isolated from the whole RNAs as followings. In view of the fact that a poly A chain is attached to the 3′ terminus of mRNA, a polynucleotide having a poly T structure which was immobilized on the surface of latex beads was used to trap the mRNA, and then the mRNA was washed and eluted with spine column (Oligotex-dT30<Super>mRNA Purification Kit, Takara). Reverse transcription of the mRNA was conducted with a reverse transcriptase (Super Script II Reverse Transcriptase; catalogue No. 18064-014, GibcoBRL) using fluorescence-labeled nucleotides to give cDNAs that were introduced with Cy3-dUTP or Cy5-dUTP during the reverse transcription.
The labeled cDNAs were dissolved in TE buffer (10mM Tris-HCl/1 mM EDTA, pH8.0), and the solution was dropped on the DNA chip containing the whole genes of yeast (DNA Chip Research Inc. Japan) so that the cDNAs were hybridized on the DNA chip at 65° C. for over 12 hours. The fluoresces intensity of the DNA chip was read with a scanner, and the ratio relative to the fluorescence intensity resulting from the absence of chemical substance was estimated as the following, which is shown in Tables 1 to 9: […]

Compound: N#Cc1c(Cl)c(Cl)c(Cl)c(C#N)c1Cl [(9), 2,4,5,6-tetrachloro-1,3-benzenedicarbonitrile]
- level of expressed mRNA in the presence/in the absence of chemical substance (yeast gene YJL121C): 0.1
- The level of expressed mRNA in the presence of chemical substance/The level of expressed mRNA in the absence of chemical substance (yeast gene YJL172W): 0.7
- The level of expressed mRNA in the presence of chemical substance/The level of expressed mRNA in the absence of chemical substance (yeast gene YJL219W): 4.0
- The level of expressed mRNA in the presence of chemical substance/The level of expressed mRNA in the absence of chemical substance (yeast gene YJL221C): 2.7
- level of expressed mRNA in the presence/in the absence of chemical substance (yeast gene YJR077C): 0.4
- The level of expressed mRNA in the presence of chemical substance/The level of expressed mRNA in the absence of chemical substance (yeast gene YJR137C): 9.0
- level of expressed mRNA in the presence/in the absence of chemical substance (yeast gene YJR143C): 0.1
- The level of expressed mRNA in the presence of chemical substance/The level of expressed mRNA in the absence of chemical substance (yeast gene YJR148W): 0.7
- The level of expressed mRNA in the presence of chemical substance/The level of expressed mRNA in the absence of chemical substance (yeast gene YJR155W): 38.2
- The level of expressed mRNA in the presence of chemical substance/The level of expressed mRNA in the absence of chemical substance (yeast gene YKL035W): 0.8
- level of expressed mRNA in the presence/in the absence of chemical substance (yeast gene YKL060C): 0.3
- The level of expressed mRNA in the presence of chemical substance/The level of expressed mRNA in the absence of chemical substance (yeast gene YKL091C): 2.3
- The level of expressed mRNA in the presence of chemical substance/The level of expressed mRNA in the absence of chemical substance (yeast gene YKL104C): 1.4
- level of expressed mRNA in the presence/in the absence of chemical substance (yeast gene YKL148C): 1.7
- The level of expressed mRNA in the presence of chemical substance/The level of expressed mRNA in the absence of chemical substance (yeast gene YKL152C): 0.9
- level of expressed mRNA in the presence/in the absence of chemical substance (yeast gene YKL157W): 1.7
- The level of expressed mRNA in the presence of chemical substance/The level of expressed mRNA in the absence of chemical substance (yeast gene YKL213C): 4.8
- The level of expressed mRNA in the presence of chemical substance/The level of expressed mRNA in the absence of chemical substance (yeast gene YKL215C): 1.3
- level of expressed mRNA in the presence/in the absence of chemical substance (yeast gene YKR034W): 0.5
- The level of expressed mRNA in the presence of chemical substance/The level of expressed mRNA in the absence of chemical substance (yeast gene YKR039W): 1.9
- The level of expressed mRNA in the presence of chemical substance/The level of expressed mRNA in the absence of chemical substance (yeast gene YLL058W): 3.5
- level of expressed mRNA in the presence/in the absence of chemical substance (yeast gene YLR006C): 1.1
- level of expressed mRNA in the presence/in the absence of chemical substance (yeast gene YLR058C): 0.2
- level of expressed mRNA in the presence/in the absence of chemical substance (yeast gene YLR081W): 0.1
- level of expressed mRNA in the presence/in the absence of chemical substance (yeast gene YLR089C): 0.5
- The level of expressed mRNA in the presence of chemical substance/The level of expressed mRNA in the absence of chemical substance (yeast gene YLR142W): 3.1
- The level of expressed mRNA in the presence of chemical substance/The level of expressed mRNA in the absence of chemical substance (yeast gene YLR164W): 5.3
- The level of expressed mRNA in the presence of chemical substance/The level of expressed mRNA in the absence of chemical substance (yeast gene YLR180W): 0.8
- The level of expressed mRNA in the presence of chemical substance/The level of expressed mRNA in the absence of chemical substance (yeast gene YLR260W): 2.6
- The level of expressed mRNA in the presence of chemical substance/The level of expressed mRNA in the absence of chemical substance (yeast gene YLR273C): 2.8
- level of expressed mRNA in the presence/in the absence of chemical substance (yeast gene YLR284C): 0.9
- The level of expressed mRNA in the presence of chemical substance/The level of expressed mRNA in the absence of chemical substance (yeast gene YLR299W): 4.9
- The level of expressed mRNA in the presence of chemical substance/The level of expressed mRNA in the absence of chemical substance (yeast gene YLR300W): 0.0
- level of expressed mRNA in the presence/in the absence of chemical substance (yeast gene YLR304C): 0.1
- The level of expressed mRNA in the presence of chemical substance/The level of expressed mRNA in the absence of chemical substance (yeast gene YLR307W): 0.6
- The level of expressed mRNA in the presence of chemical substance/The level of expressed mRNA in the absence of chemical substance (yeast gene YLR348C): 2.1
- level of expressed mRNA in the presence/in the absence of chemical substance (yeast gene YLR354C): 0.4
- level of expressed mRNA in the presence/in the absence of chemical substance (yeast gene YML022W): 0.3
- The level of expressed mRNA in the presence of chemical substance/The level of expressed mRNA in the absence of chemical substance (yeast gene YML042W): 3.8
- The level of expressed mRNA in the presence of chemical substance/The level of expressed mRNA in the absence of chemical substance (yeast gene YML054C): 4.1
- The level of expressed mRNA in the presence of chemical substance/The level of expressed mRNA in the absence of chemical substance (yeast gene YML070W): 4.5
- The level of expressed mRNA in the presence of chemical substance/The level of expressed mRNA in the absence of chemical substance (yeast gene YML100W): 1.7
- The level of expressed mRNA in the presence of chemical substance/The level of expressed mRNA in the absence of chemical substance (yeast gene YML110C): 2.7
- The level of expressed mRNA in the presence of chemical substance/The level of expressed mRNA in the absence of chemical substance (yeast gene YMR008C): 0.3
- level of expressed mRNA in the presence/in the absence of chemical substance (yeast gene YMR015C): 0.1
- The level of expressed mRNA in the presence of chemical substance/The level of expressed mRNA in the absence of chemical substance (yeast gene YMR020W): 2.3
- level of expressed mRNA in the presence/in the absence of chemical substance (yeast gene YMR083W): 0.4
- The level of expressed mRNA in the presence of chemical substance/The level of expressed mRNA in the absence of chemical substance (yeast gene YMR105C): 0.6
- The level of expressed mRNA in the presence of chemical substance/The level of expressed mRNA in the absence of chemical substance (yeast gene YMR189W): 0.7
- level of expressed mRNA in the presence/in the absence of chemical substance (yeast gene YMR205C): 0.3
